The source of these data is EP0271023A2, “Use of dihydrophenylamino-acid derivatives and medicines containing them for immunomodulation and cytostasis” (GÖDECKE AKTIENGESELLSCHAFT, priority 1986, dated 1988).

In data set [1] the test system is allogene Hauttransplantate. The class given is in vivo, Ratte. Conditions: for Toxizität / Unverträglichkeit der behandelten Tiere: skin graft model, Tab. I, Azathioprin in äquipotenter Dosis; for Wirksamkeit im Hauttransplantat-Modell (immunsuppressive Aktivität): qualitative statement. The text has this:
Die mit einer Stanze gewonnenen und vom Panniculus carnosus (einer Fett- und Muskelschicht) präparativ befreiten Transplantate werden in ebenfalls ausgestanzte Transplantatbetten des Empfängertiers plaziert. Die Transplantate werden mit speziellem Verbandmaterial bedeckt und mit einer Bandage fixiert. Endpunkt der Untersuchung ist der Tag, an dem 50 % der Tiere beide Transplantate vollständig abgestoßen haben. Die immunsuppressive Aktivität eines Wirkstoffs wird anhand der Verlängerung des normalen Transplantatüberlebens (Tage) der nicht behandelten Kontrolltiere bestimmt.

Data set [2] deals with boviner Endothelzellen. As to the kind of experiment: In vitro migration/motility of endothelial cells under angiogenic stimulus (modified Boyden chamber). The class given is cell-based, bovine. Particulars: for Anzahl der migrierten Zellen Kollagen-Fibronektin-Filter / Anzahl der migrierten Zellen Kollagen-Filter: Präinkubation + (Gangliosid-Mischung), innerhalb 8 Stunden, Mittelwert (± Standardabweichung) von 3 Versuchen. The text has this: Es wurde daher eine Untersuchung mit Cefradin als Modellsubstanz auf eine die Gefäßbildung hemmende Aktivität in einem hierzu geeigneten in vitro Model durchgeführt (s. Tab. II). In diesem Test wird der Einfluß auf die Motilität boviner Endothelzellen unter angiogenem (gefäßbildendem) Stimulus bestimmt.

For data set [3] the following is noted: cited from earlier work.

`Cn1cnc([N+](=O)[O-])c1Sc1ncnc2nc[nH]c12` [Azathioprin, 6[(1-Methylnitroimidazol-5-yl)thio]purin]: in data set [1], the “Toxizität / Unverträglichkeit der behandelten Tiere” value is on record as “ausgeprägt toxisch”.
Regarding `CC1=C(C(=O)O)N2C(=O)[C@@H](NC(=O)[C@H](N)c3ccc(O)cc3)[C@H]2SC1` [Cefadroxil], in data set [1], the “Wirksamkeit im Hauttransplantat-Modell (immunsuppressive Aktivität)” value is reported as “Unwirksamkeit”.
Consider `CC1=C(C(=O)O)N2C(=O)C(NC(=O)C(N)C3=CCC=CC3)C2SC1` (stereo not drawn) [Cefradin], for which, in data set [2] (Cefradin 10 µg/ml Medium), the “Anzahl der migrierten Zellen Kollagen-Fibronektin-Filter” value amounted to 306 ± 74 and the “Anzahl der migrierten Zellen Kollagen-Filter” value was determined as 173 ± 29. Further, in data set [2] (Cefradin 100 µg/ml Medium), the “Anzahl der migrierten Zellen Kollagen-Fibronektin-Filter” value came to 256 ± 24 and the “Anzahl der migrierten Zellen Kollagen-Filter” value is on record as 104 ± 3. Besides, in data set [2] (Cefradin 1000 µg/ml Medium), the “Anzahl der migrierten Zellen Kollagen-Fibronektin-Filter” value is 51 ± 6 and the “Anzahl der migrierten Zellen Kollagen-Filter” value was 23 ± 8. For the same molecule, the “Aktivität auf die Motilität boviner Endothelzellen” value in data set [2] (concentration range corresponding to the low, already immunosuppressive in vivo doses) is “nur geringfügige, wenn auch dosisabhängige Aktivität”. For the same molecule, the “Inhibition der Endothelmotilität” value in data set [2] (in hoher, bereits zytotoxischer Konzentration) is “komplette Inhibition”. For the same molecule, the “Ausbildung der Gefäßverbindung zwischen Transplantatbett und Transplantat” value in data set [1] (höchste Cefradin Dosis, in controls established by about the 5th postoperative day) is listed as “unterdrückte”. Moreover, in data set [1], the “Wirksamkeit im Hauttransplantat-Modell (immunsuppressive Aktivität)” value is recorded as “außerordentlich wirksam” and the “Toxizität / Unverträglichkeit der behandelten Tiere” value is “keinerlei Unverträglichkeit”. Besides, the Nierentoxizität entry in data set [3] (im Tierversuch, länger dauernde hochdosierte Anwendung) is “keine Nierentoxizität”. For the same molecule, the “leukopenische Wirkung” value in data set [3] (in vivo) is recorded as “nicht leukopenisch”.
